Reference: patent US5672707A (priority 1991, dated 1997)
Entries after “also recorded” stand apart in the source; their conditions may differ.

Experiments:
[1] = test system: mice; assay: Step-down test, scopolamine induced amnesia; assay type: in vivo
Description: (§1) Psychoneurotropic activity of the declared compounds and their influence on learning and memory were observed using unbred male (18-20 g) mice and 180-200 g) rats, held at standard conditions (room temperature 21°-22° C., 12-hours lighting schedule, food and water ad libitum).

[2] = biological target: T1, Acetylcholinesterase, enzyme from human erythrocytes (Homo sapiens, UniProt P22303); assay: Acetylcholinesterase inhibition, spectrophotometric technique of Ellman; assay type: biochemical; details: for IC50: Acetylcholinesterase inhibition IC50 (M)
T1 construct: on the enzyme from human erythrocytes; from tissue; host or cells: human erythrocytes
Description: Acetylcholinesterase inhibition under the action of preparations was assessed by the spectrophotometric technique of Ellman on the enzyme from human erythrocytes.

[3] = test system: mice; assay: Psychotropic activity test: arecoline induced hyperkynesis; assay type: in vivo; details: intraperitoneally, dose 1/20 of LD
[4] = in vivo; details: intraperitoneal injection, Table 5; for LD50: in vivo, ip, read-out: LD50 (mg/kg) by Kerber
Description: as §1
Acute toxicity was studied by the method of Kerber with intra peritoneal drug injection.

[5] = test system: rats; assay: Passive avoidance test in normal rats, 50% acquisition; assay type: in vivo; details: for change in vivo at 0.1 mg/kg: Rattus norvegicus, ip, 20 min, read-out: Increase of the number of correct trails (% to control). Passive avoidance test (rats); for change in vivo at 0.1 mg/kg / Increase of the number of correct trails (% to control). Passive avoidance test (rats): rats, 0.1 mg/kg i.p. 20 min before training, piracetam 250 mg/kg 60 min before training; for Performance of normal rats in passive avoidance test / Improving learning and memory compared with amiridine and piracetam: normal rats; for Improving learning and memory compared with amiridine and piracetam: passive avoidance test
Description: as §1
The influence of drugs on reflex conditioning in rats was studied by the passive avoidance test in conditions of 50% acquisition. The effect of the compound was estimated by the increase of the relative number of learned animals with respect to that of control group. […] The other reference drug--noothropic agent piracetam--was given in the dose 250 mg/kg 60 min before training. Amnestic syndrome was stimulated by 20 days application of Sc at the daily dose of 1 mg/kg intraperitoneally. […] The passive avoidance test was performed within 24 hours after the last application of test preparations.

[6] = test system: K channels; assay: Ionic permeabilities of excitable membranes, voltage clamp in the Ranvier node; assay type: cell-based, frog; details: for Block of K-channels IC (M): Ranvier node of the frog, voltage clamp
[7] = test system: mice; assay: Psychotropic activity test: motor activity; assay type: in vivo; details: intraperitoneally, dose 1/20 of LD
[8] = test system: rat adipocytes; assay: Lipid composition of adipocytes after incubation with compounds; assay type: cell-based; details: for FFA/TG in adipocytes / PL/CL in adipocytes / PL/TG in adipocytes: cells, Table 11; for FFAc/FFAm / PLc/PLm: distribution between cells and incubation medium, Table 13
Description: (§2) Lipid regulative activity of the declared compounds--derivatives of 9-amino acridine--were evaluated in vitro[…] using rat adipocytes. Adipocytes were separated from adipose tissue of testis appendages of adult male rats. Lipid composition analysis was performed by the method of thin-layer chromatography.
(§3) Quantitative analysis of phospholipids (PL), mono- and diacylglycerides (MDG), triacylglycerides (TG), free fatty acids (FFA), free cholesterol (FCL), and methyl esters of fatty acids (MEFA) was performed by the method of spectrophotometry.

[9] = test system: rat adipocytes; assay: Lipid content in incubation medium after incubation of adipocytes; assay type: cell-based; details: incubation medium; Table 12
Description: as §2, §3

[10] = enzyme from human erythrocytes, Table 5

T1 sequence (P22303-2 with tags, fused parts or gaps limits assumed): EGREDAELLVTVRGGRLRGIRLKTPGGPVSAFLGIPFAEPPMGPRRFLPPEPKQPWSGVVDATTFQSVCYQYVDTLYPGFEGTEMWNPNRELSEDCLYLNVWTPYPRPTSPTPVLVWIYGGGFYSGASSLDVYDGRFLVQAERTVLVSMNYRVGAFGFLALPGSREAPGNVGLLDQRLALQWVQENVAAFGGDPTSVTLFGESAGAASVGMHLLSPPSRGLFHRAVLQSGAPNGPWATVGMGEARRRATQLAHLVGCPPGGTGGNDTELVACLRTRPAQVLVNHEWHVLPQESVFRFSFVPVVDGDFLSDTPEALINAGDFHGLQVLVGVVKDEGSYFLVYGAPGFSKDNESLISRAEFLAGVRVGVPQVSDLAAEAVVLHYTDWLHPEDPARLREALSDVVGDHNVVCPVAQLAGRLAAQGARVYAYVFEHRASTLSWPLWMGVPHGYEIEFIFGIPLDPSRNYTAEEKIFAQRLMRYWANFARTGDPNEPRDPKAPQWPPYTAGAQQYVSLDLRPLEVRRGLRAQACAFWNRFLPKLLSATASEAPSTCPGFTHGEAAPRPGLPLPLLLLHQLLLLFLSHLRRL

Row | Compound | Antiamnestic activity in Step-down test (% of mice with latency > cut off) [1] | IC50 [2, 10] | Increase of duration of arecoline induced hyperkynesis (% to control) [3] | LD50 [4] | change in vivo at 0.1 mg/kg [5] | Motor activity increment (% to control) [7] | also measured
1 | CC1(C)CC(=O)c2c(nc3ccccc3c2N)C1 [IVb] | 0 % of mice | 3.5e-06 M | 33 % to control | 70 ± 4.3 mg/kg | 30% | 0 % to control | The shift of activation region of K channels: substance lowest concentrations in M producing measureable shift of 1-2 mV [6]: no effect; Block of K-channels IC (M) [6]: no effect
2 | CC1(C)C=Cc2c(nc3ccccc3c2N)C1 [VIIb] | 25 % of mice | 7.5e-08 M | 25 % to control | 37.5 ± 0.9 mg/kg | 40% | 41 % to control | Antiamnestic activity in Step-down test [1]: pronounced antiatonestic activity, comparable with that of amiridine and tacrine; Performance of normal rats in passive avoidance test [5]: statistically significantly improved performance of normal rats; Block of K-channels IC (M) [6]: no effect
3 | CC1(C)C=Cc2c(nc3ccccc3c2NCc2ccc(Cl)cc2)C1 [VIId] | 20 % of mice | 6e-09 M | 15 % to control | 126 ± 8.9 mg/kg | 60% | 28 % to control | Change of lipid composition in adipocytes [8]: significaut lipolytic effect; also recorded: significant lipolytic effect; Lipid-regulative effect compared with probucol [8]: not inferior; Potency of effect on lipid composition of adipocytes [8]: most potent effect on lipid composition of adipocytes; FFA/TG in adipocytes [8]: 1.16; PL/CL in adipocytes [8]: 0.69; PL/TG in adipocytes [8]: 0.73; FFAc/FFAm [8]: 1.07; PLc/PLm [8]: 0.97; Performance of normal rats in passive avoidance test [5]: statistically significantly improved performance of normal rats; Improving learning and memory compared with amiridine and piracetam [5]: as effective in improving learning and memory as amiridine and piracetam; FFA/TG in incubation medium [9]: 0.96; PL/CL in incubation medium [9]: 0.75; PL/TG in incubation medium [9]: 0.67
4 | CC1(C)C=Cc2c(nc3ccccc3c2NCc2ccccc2)C1 [VIIi] | 25 % of mice |  | 15 % to control |  |  | 20 % to control | Antiamnestic activity in Step-down test [1]: pronounced antiatonestic activity, comparable with that of amiridine and tacrine; LD50 (mg/kg) by Kerber [4]: 500 mg/kg; Performance of normal rats in passive avoidance test [5]: statistically significantly improved performance of normal rats; Increase of the number of correct trails (% to control). Passive avoidance test (rats) [5]: 35 % to control
5 | CC1(C)C=Cc2c(nc3ccccc3c2NCc2ccccc2)C1 [VIIj] |  |  |  |  |  |  | FFA/TG in adipocytes [8]: 1.00; PL/CL in adipocytes [8]: 0.83; PL/TG in adipocytes [8]: 0.86; FFAc/FFAm [8]: 0.93; PLc/PLm [8]: 1.08; FFA/TG in incubation medium [9]: 1.07; PL/CL in incubation medium [9]: 0.89; PL/TG in incubation medium [9]: 0.81
6 | CC1(C)C=Cc2c(nc3ccccc3c2NCc2ccccc2)C1 [VIIk] |  |  | 20 % to control |  |  | 20 % to control | FFA/TG in adipocytes [8]: 0.93; PL/CL in adipocytes [8]: 0.61; PL/TG in adipocytes [8]: 0.58; FFAc/FFAm [8]: 0.95; PLc/PLm [8]: 0.78; LD50 (mg/kg) by Kerber [4]: 90.5 ± 8. mg/kg; Increase of the number of correct trails (% to control). Passive avoidance test (rats) [5]: 25 % to control; FFA/TG in incubation medium [9]: 1.10; PL/CL in incubation medium [9]: 0.96; PL/TG in incubation medium [9]: 0.84
7 | CC1(C)C=Cc2c(nc3ccccc3c2NCc2ccccc2)C1 [VIIl] |  |  | 15 % to control |  |  | 10 % to control | FFA/TG in adipocytes [8]: 1.00; PL/CL in adipocytes [8]: 0.75; PL/TG in adipocytes [8]: 0.78; FFAc/FFAm [8]: 0.96; PLc/PLm [8]: 0.97; LD50 (mg/kg) by Kerber [4]: 116.7 ± 10.9 mg/kg; Increase of the number of correct trails (% to control). Passive avoidance test (rats) [5]: 40 % to control; FFA/TG in incubation medium [9]: 1.00; PL/CL in incubation medium [9]: 0.91; PL/TG in incubation medium [9]: 0.77
8 | CC1(C)Cc2nc3ccccc3c(N)c2C(O)C1 (stereo not drawn) [VIb] | 0 % of mice | 1.2e-06 M | 66 % to control | 63.3 ± 8.8 mg/kg | 20% | 40 % to control | 
9 | Cc1ccc(CNc2c3c(nc4ccccc24)CC(C)(C)CC3O)c(C)c1 (stereo not drawn) [VIi] | 0 % of mice | 1e-06 M | 46 % to control |  |  | 13 % to control | LD50 (mg/kg) by Kerber [4]: 75.0 ± 1.2 mg/kg; Increase of the number of correct trails (% to control). Passive avoidance test (rats) [5]: 15 % to control; The shift of activation region of K channels: substance lowest concentrations in M producing measureable shift of 1-2 mV [6]: no effect
10 | CCCCNc1c2c(nc3ccccc13)CC(C)(C)CC2=O [Vaa] | 25 % of mice |  | 25 % to control |  |  | 26 % to control | FFA/TG in adipocytes [8]: 0.94; PL/CL in adipocytes [8]: 0.63; PL/TG in adipocytes [8]: 0.58; FFAc/FFAm [8]: 1.01; PLc/PLm [8]: 1.04; Antiamnestic activity in Step-down test [1]: pronounced antiatonestic activity, comparable with that of amiridine and tacrine; LD50 (mg/kg) by Kerber [4]: 650.0 ± 11.3 mg/kg; Increase of the number of correct trails (% to control). Passive avoidance test (rats) [5]: 15 % to control; FFA/TG in incubation medium [9]: 0.92; PL/CL in incubation medium [9]: 0.71; PL/TG in incubation medium [9]: 0.55
11 | CC1(C)CC(=O)c2c(nc3ccccc3c2NCc2ccccc2)C1 [Vb] | 0 % of mice |  | 15 % to control | 735 ± 21.8 mg/kg | 25% | 80 % to control | AChE inhibition IC (M) ([2]; Table 6): no effect; Acetylcholinesterase inhibition IC50 (M) [2, 10]: no effect; The shift of activation region of K channels: substance lowest concentrations in M producing measureable shift of 1-2 mV [6]: no effect
12 | Cc1ccc(CNc2c3c(nc4ccccc24)CC(C)(C)CC3=O)c(C)c1 [Vd] | 20 % of mice | 1e-05 M | 0 % to control | > 1000 mg/kg | 50% | 90 % to control | Performance of normal rats in passive avoidance test [5]: statistically significantly improved performance of normal rats; Improving learning and memory compared with amiridine and piracetam [5]: as effective in improving learning and memory as amiridine and piracetam
13 | CC1(C)CC(=O)c2c(nc3ccccc3c2NCc2ccc(Cl)cc2)C1 [Vf] | 0 % of mice | 8e-05 M | 0 % to control | > 1000 mg/kg | 0% | 13 % to control | The shift of activation region of K channels: substance lowest concentrations in M producing measureable shift of 1-2 mV [6]: no effect
14 | CCNc1c2c(nc3ccccc13)CC(C)(C)CC2=O [Vj] |  | 1.7e-06 M | 20 % to control | 73.3 ± 8.6 mg/kg | 0% | 59 % to control | 
15 | CCCNc1c2c(nc3ccccc13)CC(C)(C)CC2=O [Vl] |  | 3e-06 M | 30 % to control | 283 ± 35.7 mg/kg | 0% | 74 % to control | 
16 | CC(C)Nc1c2c(nc3ccccc13)CC(C)(C)CC2=O [Vn] |  | 6e-06 M | 0 % to control | 70.2 ± 7.3 mg/kg | 0% | 76 % to control | 
17 | CC(C)CNc1c2c(nc3ccccc13)CC(C)(C)CC2=O [Vq] |  | 2e-06 M | 0 % to control | 158 ± 21.9 mg/kg | 0% | 75 % to control | 
18 | CCN(CC)CCNc1c2c(nc3ccccc13)CC(C)(C)CC2=O [Vr] |  | 5e-05 M | 26 % to control | 135 ± 8.2 mg/kg | 0% | 0 % to control | 
